Experimental data as given in patent publication US3939263A, “Methods of combatting insects and acarina using oxygenated derivatives of S-(tert-bulythio)methyl O,O-diethyl phosphorodithioate and phosphorothioate” (priority 1974, dated 1976).

What was measured:
Bean Aphid = assay: Bean Aphid, sprayed nasturtium plants; type: in vivo, Aphis fabae Scopoli; settings: Aphis fabae, 24 h, one day, read-out: % Kill, Bean Aphid
Procedure: Bean Aphid -- Aphis fabae Scopoli
Two-inch fiber pots, each containing a nasturtium plant 2 inches high and infested with 100 to 150 aphids 2 days earlier are placed on a 4 […] an Atomizer at 20 psi. air pressure. The spray tip is held about 6 inches from the plants and the spray directed so as to give complete coverage of the aphids and the plants. The sprayed plants are laid on their sides on white enamel trays. Mortality estimates are made after one day at 70°F., 50% r.h.

Tarnished Plant Bug = assay: Tarnished Plant Bug, treated cotton leaf, 2-day mortality; type: in vivo, Lygus Lineolaris (Palisot de Beauvois); settings: Lygus lineolaris, 48 h, 2 days, read-out: % Kill, Tarnished Plant Bug
Procedure: Tarnished Plant Bug -- Lygus Lineolaris (Palisot de Beauvois)
A cotton plant with two true leaves expanded is dipped for 3 seconds with agitation in a 35/65% water/acetone mixture containing 100 ppm. of test compound and set in the hood to dry. One leaf is removed and placed in an 8-ounce waxed cup containing a wet 2-inch dental wick and 10 adult tarnished plant bugs, and a clear plastic lid is snapped on. After 2 days at 80°F., 50% r.h., mortality counts are made.

Housefly = Housefly feeding test in sugar water; type: in vivo, Musca domestica Linneaus; settings: Musca domestica; 5 ppm in sugar water; counts after 1 day and 3 days; read-out: % Kill, Housefly
Procedure: Housefly -- Musca domestica Linneaus
Groups of 25 adult female houseflies three to 5 days old are lightly anesthetized with CO2, placed in wide-mouthed pint mason jars, and covered with a screen cap. The test compound is a 100 ppm. 35/65% water/acetone solution. Two milliliters of this is pipetted into a 10-dram vial and diluted to 40 ml. with 10% sugar solution, giving a final concentration of 5 ppm. in sugar water. The mouth of the vial is covered with a single layer of cheesecloth, inverted and placed on the screen cap of the fly jar, so that the flies can feed on the solution through the screen. Mortality counts are made after 1 day and 3 days at 80°F., 50% r.h.

Cotton Boll Weevil = assay: Soil Systemic Insecticide test on cotton, Cotton Boll Weevil; type: in vivo, Anthonomus grandis Boheman; settings: 48 h; 100 ppm in soil; cotton leaves after three weeks; 2 days; read-out: % Kill, Systemic Insecticide, Cotton Boll Weevil
Procedure: Soil Systemic Insecticide Tests
Corn and cotton seed (three seeds each) are planted in treated soil (containing about 100 ppm. of the compound). Thirty milliliters of treated soil are placed in a peat container 5 × 5 × 5.5 cm., and three seeds each of corn and cotton planted. The containers are filled with an additional 30 ml. of treated soil. The treatments are removed to the greenhouse maintained about 26°C. without supplementary light. Water is supplied as needed. After three weeks, foliage of the corn is clipped and placed in glass petri dishes (90 mm. × 10 mm.) with moist filter (9 cm. Whatman No. 1) paper and ten third-instar southern armyworm (Spodoptera eridania Cramer) larvae about 8 mm. long. The dishes are covered and placed in the holding room with constant light at 26.7°C. and 60% r.h. for 2 days, when mortality counts are made.
The cotyledonary leaves of the cotton are clipped after three weeks and placed in glass petri dishes (90 mm. × 10 mm.) with moist filter (9 cm. Whatman No. 1) paper and ten adult boll weevils (Anthonomus grandis Boheman). The dishes are covered, placed in the holding room with constant light at 26.7°C. and 60% r.h. for 2 days, when mortality counts are made.

Mexican Bean Beetle = assay: Mexican Bean Beetle, dipped lima bean leaves; type: in vivo, Epilachna varivestis Mulsant; settings: Epilachna varivestis, read-out: % Kill, Mexican Bean Beetle
Text: Mexican Bean Beetle -- Epilachna varivestis Mulsant
Sieva lima bean plants (two per pot) with primary leaves 3 to 4 inches long, are dipped in a 35/65% water/acetone mixture containing 100 ppm. of test compound and set in the hood to dry. One leaf is removed from a plant and placed in a 4-inch petri dish containing a moist filter paper on the bottom and 10 last-instar larvae (13 days from hatching). The day after treatment, another leaf is removed from the plant and fed to the larvae after removing the remains of the original leaf. Two days after treatment, the third leaf is fed to the larvae, this usually being the last needed. The fourth leaf is used on the third day after treatment if the larvae have not finished feeding. The test is now set aside and held until adults have emerged, usually in about nine days after treatment began. After emergence is complete, each dish is examined for dead larvae, pupae or adults; deformed pupae or adults; larval-pupal intermediates or pupal-adult intermediates; or any other interference with normal molting, transformation and emergence of pupae or adults.

Southern Corn Rootworm = assay: Soil Insecticide test, Southern Corn Rootworm; type: in vivo, Diabrotica undecimpunctata howardi Barber; settings: 144 h, 6 days, read-out: % Kill, Soil Insecticide, Southern Corn Rootworm; for mortality at 1 ppm: 1 ppm in soil; for mortality at 10 ppm: 10 ppm in soil; for mortality at 100 ppm: 100 ppm in soil
Procedure: Southern Corn Rootworm -- Diabrotica undecimpunctata howardi Barber
[…] Twelve and one-half milliliters of Littleton silt loam soil and 1 milliliter of millet seed (food for larvae) are added, the jars capped and the contents thoroughly mixed about 2 minutes on a rotary tumbler. Each jar then receives 5 ml. of tap water and ten southern corn rootworm larvae (Diabrotica undecimpunctata howardi Barber) 6 to 8 days old. The jars are loosely capped and placed in the holding room at 26.7°C. and 60% r.h. with constant light. Mortality counts are made after 6 days. Corrected percent mortality data is recorded on standard forms.

[1] = test system: Western Potato Leafhopper; assay: Western Potato Leafhopper, dipped lima bean leaf; type: in vivo, Empoasca abrupta Say; settings: 48 h, 2 days, read-out: % Kill, Western Potato Leafhopper
Text: Western Potato Leafhopper -- Empoasca abrupta Say
A Sieva lima bean plant with the primary leaf expanded to 3 to 4 inches is dipped into a 35/65% water/acetone mixture containing 100 ppm. of test compound and set in the hood to dry. A 1-inch piece of the tip of one leaf is cut off and placed in a 4-inch petri dish with a moist filter paper in the bottom. From three to 10 second-instar nymphs are tapped from the culture plants into the test dish and rapidly covered. Mortality counts are made after 2 days at 80°F., and 50% r.h.

Southern Armyworm = assay: Southern Armyworm, dipped lima bean leaf; type: in vivo, Spodoptera eridania (Cramer); settings: Spodoptera eridania, 48 h, 2 days, read-out: % Kill, Southern Armyworm
Procedure: Southern Armyworm -- Spodoptera eridania (Cramer)
A Sieva lima bean plant with just the primary leaves expanded to 3 to 4 inches is dipped for 3 seconds with agitation in a 35/65% water/acetone mixture containing 1000 ppm. of test compound and set in the hood to dry. Following this, one leaf is placed in a 4-inch petri dish which has a moist filter paper in the bottom and ten third-instar armyworm larvae about three-eighths inch long. The dish is covered and held at 80°F., and 50% r.h. After 2 days, mortality counts and estimates of the amount of feeding are made. Compounds showing partial kill and/or inhibition of feeding are held for an extra day for further observations.

Compound	mortality at 1 ppm (Bean Aphid) [%]	mortality at 10 ppm (Bean Aphid) [%]	mortality at 100 ppm (Bean Aphid) [%]	mortality at 100 ppm (Tarnished Plant Bug) [%]	mortality at 5 ppm (Housefly) [%]	mortality at 100 ppm (Cotton Boll Weevil) [%]	mortality at 10 ppm (Mexican Bean Beetle) [%]	mortality at 100 ppm (Mexican Bean Beetle) [%]	mortality at 1 ppm (Southern Corn Rootworm) [%]	mortality at 10 ppm (Southern Corn Rootworm) [%]	mortality at 100 ppm (Southern Corn Rootworm) [%]	mortality at 10 ppm [1] [%]	mortality at 100 ppm [1] [%]	mortality at 100 ppm (Southern Armyworm) [%]	mortality at 1000 ppm (Southern Armyworm) [%]
CCOP(=O)(OCC)SCS(=O)(=O)C(C)(C)C [O,O-diethyl S-(tert-butylsulfonyl)methyl Phosphorothioate]	100	100	100	100	100	100	70	90	0	100	100	100	100	100	100
CCOP(=O)(OCC)SC[S+]([O-])C(C)(C)C (stereo not drawn) [O,O-diethyl S-(tert-butylsulfinyl)methyl Phosphorothioate]	100	100	100	100	100	100	100	100	61	100	100	100	100	100	100
CCOP(=S)(OCC)SC[S+]([O-])C(C)(C)C (stereo not drawn) [O,O-diethyl S-(tert-butylsulfinyl)methyl phosphorodithioate, reference compound]	100	100	100	100	100	100	80	90	95	100	100	100	100	70	100
CCOP(=S)(OCC)SCS(=O)(=O)C(C)(C)C [O,O-diethyl S-(tert-butylsulfonyl)methyl Phosphorodithioate]	100	100	100	100	100	90	–	100	100	100	100	–	–	100	100
